{"source": "patent US20250151724A1", "about": "“Liquid Soil Treatments Containing Choline” (Harrell's, LLC, priority 2023, published 2025)", "system": "creeping bentgrass putting green", "method": "The study was carried out on a creeping bentgrass putting green. There were two separate trials (Trial 1 and Trial 2). Trial 1 and Trial 2 were conducted side by side. Each trial consisted of 2 treatments with 4 replications. Plot size was 5×6 ft. Regular mowing and irrigation were performed. A randomized block design was used.\nThe treatments were as follows: • I. Choline Trial 1-Biweekly • 1. Fertilized Control • 2. Choline 0.5 oz./1,000 ft^2 every two weeks • II. Choline Trial 2-Monthly • 1. Fertilized Control • 2. Choline 0.5 oz./1,000 ft^2 every month\nBetween 0.125″ and 0.25″ of irrigation was applied 3-4 hours post application. All treatments received equal fertility (applied bi-weekly) with 28-8-18 with UMAXX® fertilizer (Harrell's, Lakeland, Florida) applied on the day following application of treatments.\nThe trials lasted for 15 weeks and a total of 7 treatment applications in the bi-weekly trial and 4 treatment applications in the monthly trial. The following measurements data were taken at the specified intervals throughout the trials: • a. Volumetric water content (VWC) was measured with a TDR350 moisture sensor (Turf-Tec Intentional, Tallahassee, FL) every 2 weeks. In addition, beginning on days 13, 34, and 69, irrigation was withheld for about 9 days to allow gradual decline of the soil water content, inducing significant decline in leaf color and turf quality. Volumetric water content was measured at day 0 (the day of initiation of irrigation withholding), day 3, day 6, and day 9. Irrigation was resumed after day 9 of the first and second dry down cycle. […] Three readings of VWC were collected from each plot and the average was used for statistical analysis. • b. Leaf color was rated based on a visual scale of 1 through 9, with 1 indicating brown color and 9 indicating dark green color. • c. Turf quality was rated based on a visual scale of 1 through 9, with 9 indicating the best quality and 6 indicating the minimum commercially acceptable quality.", "key": {"[1]": {"conditions": "0.5 oz/1000 ft^2 biweekly, day 0"}, "[2]": {"conditions": "0.5 oz/1000 ft^2 biweekly, day 14"}, "[3]": {"conditions": "0.5 oz/1000 ft^2 biweekly, day 17"}, "[4]": {"conditions": "0.5 oz/1000 ft^2 biweekly, day 20"}, "[5]": {"conditions": "0.5 oz/1000 ft^2 biweekly, day 22"}, "[6]": {"conditions": "0.5 oz/1000 ft^2 biweekly, day 29"}, "[7]": {"conditions": "0.5 oz/1000 ft^2 biweekly, day 34"}, "[8]": {"conditions": "0.5 oz/1000 ft^2 biweekly, day 38"}, "[9]": {"conditions": "0.5 oz/1000 ft^2 biweekly, day 41"}, "[10]": {"conditions": "0.5 oz/1000 ft^2 biweekly, day 43"}, "[11]": {"conditions": "0.5 oz/1000 ft^2 biweekly, day 57"}, "[12]": {"conditions": "0.5 oz/1000 ft^2 biweekly, day 71"}, "[13]": {"conditions": "0.5 oz/1000 ft^2 biweekly, day 76"}, "[14]": {"conditions": "0.5 oz/1000 ft^2 biweekly, day 78"}, "[15]": {"conditions": "0.5 oz/1000 ft^2 biweekly, day 84"}, "[16]": {"conditions": "0.5 oz/1000 ft^2 biweekly, day 98"}, "[17]": {"conditions": "0.5 oz/1000 ft^2 monthly, day 0"}, "[18]": {"conditions": "0.5 oz/1000 ft^2 monthly, day 14"}, "[19]": {"conditions": "0.5 oz/1000 ft^2 monthly, day 17"}, "[20]": {"conditions": "0.5 oz/1000 ft^2 monthly, day 20"}, "[21]": {"conditions": "0.5 oz/1000 ft^2 monthly, day 22"}, "[22]": {"conditions": "0.5 oz/1000 ft^2 monthly, day 29"}, "[23]": {"conditions": "0.5 oz/1000 ft^2 monthly, day 34"}, "[24]": {"conditions": "0.5 oz/1000 ft^2 monthly, day 38"}, "[25]": {"conditions": "0.5 oz/1000 ft^2 monthly, day 41"}, "[26]": {"conditions": "0.5 oz/1000 ft^2 monthly, day 43"}, "[27]": {"conditions": "0.5 oz/1000 ft^2 monthly, day 57"}, "[28]": {"conditions": "0.5 oz/1000 ft^2 monthly, day 71"}, "[29]": {"conditions": "0.5 oz/1000 ft^2 monthly, day 76"}, "[30]": {"conditions": "0.5 oz/1000 ft^2 monthly, day 78"}, "[31]": {"conditions": "0.5 oz/1000 ft^2 monthly, day 84"}, "[32]": {"conditions": "0.5 oz/1000 ft^2 monthly, day 98"}}, "note": "Read-outs that look alike come from different tables or passages of the source.", "data": [{"smiles": "C[N+](C)(C)CCO.[Cl-]", "note": "[Choline, choline chloride]", "values": [{"measurement": "Leaf color (1-9, 9 = dark green)", "setting": "[1]", "value": 7.0, "unit": "a"}, {"measurement": "Turf quality (1-9, 9 = best)", "setting": "[1]", "value": 6.9, "unit": "a"}, {"measurement": "Leaf color (1-9, 9 = dark green)", "setting": "[2]", "value": 7.0, "unit": "a"}, {"measurement": "Turf quality (1-9, 9 = best)", "setting": "[2]", "value": 7.1, "unit": "a"}, {"measurement": "Leaf color (1-9, 9 = dark green)", "setting": "[3]", "value": 7.0, "unit": "a"}, {"measurement": "Turf quality (1-9, 9 = best)", "setting": "[3]", "value": 7.0, "unit": "a"}, {"measurement": "Leaf color (1-9, 9 = dark green)", "setting": "[4]", "value": 7.0, "unit": "a"}, {"measurement": "Turf quality (1-9, 9 = best)", "setting": "[4]", "value": 7.0, "unit": "a"}, {"measurement": "Leaf color (1-9, 9 = dark green)", "setting": "[5]", "value": 6.9, "unit": "a"}, {"measurement": "Turf quality (1-9, 9 = best)", "setting": "[5]", "value": 7.0, "unit": "a"}, {"measurement": "Leaf color (1-9, 9 = dark green)", "setting": "[6]", "value": 7.0, "unit": "a"}, {"measurement": "Turf quality (1-9, 9 = best)", "setting": "[6]", "value": 7.0, "unit": "a"}, {"measurement": "Leaf color (1-9, 9 = dark green)", "setting": "[7]", "value": 7.4, "unit": "a"}, {"measurement": "Turf quality (1-9, 9 = best)", "setting": "[7]", "value": 6.9, "unit": "a"}, {"measurement": "Leaf color (1-9, 9 = dark green)", "setting": "[8]", "value": 7.5, "unit": "a"}, {"measurement": "Turf quality (1-9, 9 = best)", "setting": "[8]", "value": 7.1, "unit": "a"}, {"measurement": "Leaf color (1-9, 9 = dark green)", "setting": "[9]", "value": 7.4, "unit": "a"}, {"measurement": "Turf quality (1-9, 9 = best)", "setting": "[9]", "value": 7.0, "unit": "a"}, {"measurement": "Leaf color (1-9, 9 = dark green)", "setting": "[10]", "value": 7.1, "unit": "a"}, {"measurement": "Turf quality (1-9, 9 = best)", "setting": "[10]", "value": 6.5, "unit": "a"}, {"measurement": "Leaf color (1-9, 9 = dark green)", "setting": "[11]", "value": 6.5, "unit": "a"}, {"measurement": "Turf quality (1-9, 9 = best)", "setting": "[11]", "value": 5.9, "unit": "a"}, {"measurement": "Leaf color (1-9, 9 = dark green)", "setting": "[12]", "value": 6.4, "unit": "a"}, {"measurement": "Turf quality (1-9, 9 = best)", "setting": "[12]", "value": 6.1, "unit": "a"}, {"measurement": "Leaf color (1-9, 9 = dark green)", "setting": "[13]", "value": 6.5, "unit": "a"}, {"measurement": "Turf quality (1-9, 9 = best)", "setting": "[13]", "value": 6.0, "unit": "a"}, {"measurement": "Leaf color (1-9, 9 = dark green)", "setting": "[14]", "value": 6.4, "unit": "a"}, {"measurement": "Turf quality (1-9, 9 = best)", "setting": "[14]", "value": 5.6, "unit": "a"}, {"measurement": "Leaf color (1-9, 9 = dark green)", "setting": "[15]", "value": 6.8, "unit": "a"}, {"measurement": "Turf quality (1-9, 9 = best)", "setting": "[15]", "value": 5.8, "unit": "a"}, {"measurement": "Leaf color (1-9, 9 = dark green)", "setting": "[16]", "value": 7.0, "unit": "a"}, {"measurement": "Turf quality (1-9, 9 = best)", "setting": "[16]", "value": 6.1, "unit": "a"}, {"measurement": "Leaf color (1-9, 9 = dark green)", "setting": "[17]", "value": 7.0, "unit": "a"}, {"measurement": "Turf quality (1-9, 9 = best)", "setting": "[17]", "value": 7.0, "unit": "a"}, {"measurement": "Leaf color (1-9, 9 = dark green)", "setting": "[18]", "value": 6.9, "unit": "a"}, {"measurement": "Turf quality (1-9, 9 = best)", "setting": "[18]", "value": 6.9, "unit": "a"}, {"measurement": "Leaf color (1-9, 9 = dark green)", "setting": "[19]", "value": 7.0, "unit": "a"}, {"measurement": "Turf quality (1-9, 9 = best)", "setting": "[19]", "value": 7.0, "unit": "a"}, {"measurement": "Leaf color (1-9, 9 = dark green)", "setting": "[20]", "value": 7.0, "unit": "a"}, {"measurement": "Turf quality (1-9, 9 = best)", "setting": "[20]", "value": 7.3, "unit": "a"}, {"measurement": "Leaf color (1-9, 9 = dark green)", "setting": "[21]", "value": 6.9, "unit": "a"}, {"measurement": "Turf quality (1-9, 9 = best)", "setting": "[21]", "value": 6.6, "unit": "a"}, {"measurement": "Leaf color (1-9, 9 = dark green)", "setting": "[22]", "value": 7.0, "unit": "a"}, {"measurement": "Turf quality (1-9, 9 = best)", "setting": "[22]", "value": 6.6, "unit": "a"}, {"measurement": "Leaf color (1-9, 9 = dark green)", "setting": "[23]", "value": 7.5, "unit": "a"}, {"measurement": "Turf quality (1-9, 9 = best)", "setting": "[23]", "value": 7.3, "unit": "a"}, {"measurement": "Leaf color (1-9, 9 = dark green)", "setting": "[24]", "value": 7.1, "unit": "a"}, {"measurement": "Turf quality (1-9, 9 = best)", "setting": "[24]", "value": 7.0, "unit": "a"}, {"measurement": "Leaf color (1-9, 9 = dark green)", "setting": "[25]", "value": 7.5, "unit": "a"}, {"measurement": "Turf quality (1-9, 9 = best)", "setting": "[25]", "value": 7.0, "unit": "a"}, {"measurement": "Leaf color (1-9, 9 = dark green)", "setting": "[26]", "value": 6.9, "unit": "a"}, {"measurement": "Turf quality (1-9, 9 = best)", "setting": "[26]", "value": 6.6, "unit": "a"}, {"measurement": "Leaf color (1-9, 9 = dark green)", "setting": "[27]", "value": 7.1, "unit": "a"}, {"measurement": "Turf quality (1-9, 9 = best)", "setting": "[27]", "value": 6.8, "unit": "a"}, {"measurement": "Leaf color (1-9, 9 = dark green)", "setting": "[28]", "value": 6.9, "unit": "a"}, {"measurement": "Turf quality (1-9, 9 = best)", "setting": "[28]", "value": 6.8, "unit": "a"}, {"measurement": "Leaf color (1-9, 9 = dark green)", "setting": "[29]", "value": 7.0, "unit": "a"}, {"measurement": "Turf quality (1-9, 9 = best)", "setting": "[29]", "value": 6.6, "unit": "a"}, {"measurement": "Leaf color (1-9, 9 = dark green)", "setting": "[30]", "value": 7.0, "unit": "a"}, {"measurement": "Turf quality (1-9, 9 = best)", "setting": "[30]", "value": 6.5, "unit": "a"}, {"measurement": "Leaf color (1-9, 9 = dark green)", "setting": "[31]", "value": 7.3, "unit": "a"}, {"measurement": "Turf quality (1-9, 9 = best)", "setting": "[31]", "value": 7.0, "unit": "a"}, {"measurement": "Leaf color (1-9, 9 = dark green)", "setting": "[32]", "value": 7.7, "unit": "a"}, {"measurement": "Turf quality (1-9, 9 = best)", "setting": "[32]", "value": 7.3, "unit": "a"}]}]}
